According to ChEMBL document CHEMBL5724914, “Linking interpersonal differences in gut microbiota composition and drug biotransformation activity” (2024):

Legend:
[1] = (§1) The drug is tested on WLS-038 corresponding to human gut metagenome with ENA study accession number: PRJEB37062 and ENA sample accession number: ERS12561745 for biotransformation under anaerobic condition. The drug concentrations were measured over 9 timepoints collected between 0 and 24 hours of incubation by liquid-chromatography-coupled mass spectrometry (LC–MS); conditions: 2 µM
[2] = as §1, with “WLS-069” for “WLS-038”, “ERS12561748” for “ERS12561745”; conditions: 2 µM
[3] = as §1, with “WLS-007” for “WLS-038”, “ERS12561742” for “ERS12561745”; conditions: 2 µM
[4] = as §1, with “Z-019” for “WLS-038”, “rat” for “human”, “ERS12561818” for “ERS12561745”; conditions: 2 µM
[5] = as §1, with “Z-004” for “WLS-038”, “to” for “to human gut”, “ERS12561804” for “ERS12561745”; conditions: 2 µM
[6] = as §1, with “WLS-082” for “WLS-038”, “ERS12561751” for “ERS12561745”; conditions: 2 µM
[7] = human gut metagenome, 24 h, 2 µM
[8] = as §1, with “WLS-077” for “WLS-038”, “ERS12561750” for “ERS12561745”; conditions: 2 µM
[9] = as §1, with “Z-020” for “WLS-038”, “rabbit” for “human”, “ERS12561819” for “ERS12561745”; conditions: 2 µM
[10] = human gut metagenome, 24 h, 2 µM; remark: listed apart in the source
[11] = as §1, with “Z-023” for “WLS-038”, “to” for “to human gut”, “ERS12561822” for “ERS12561745”; conditions: 2 µM
[12] = human gut metagenome, 24 h, 2 µM; remark: listed apart in the source
[13] = as §1, with “Z-003” for “WLS-038”, “pig” for “human”, “ERS12561803” for “ERS12561745”; conditions: 2 µM
[14] = human gut metagenome, 24 h, 2 µM; remark: listed apart in the source
[15] = human gut metagenome, 24 h, 2 µM; remark: listed apart in the source
[16] = as §1, with “Z-001” for “WLS-038”, “mouse” for “human”, “ERS12561801” for “ERS12561745”; conditions: 2 µM
[17] = human gut metagenome, 24 h, 2 µM; remark: listed apart in the source
[18] = as §1, with “Z-027” for “WLS-038”, “to” for “to human gut”, “ERS12561826” for “ERS12561745”; conditions: 2 µM
[19] = as §1, with “Z-008” for “WLS-038”, “to” for “to human gut”, “ERS12561808” for “ERS12561745”; conditions: 2 µM
[20] = human gut metagenome, 24 h, 2 µM; remark: listed apart in the source
Further: call rule not given here.

Structure (SMILES) | Bacterial Biotransformation [1] | Bacterial Biotransformation [2] | Bacterial Biotransformation [3] | Bacterial Biotransformation [4] | Bacterial Biotransformation [5] | Bacterial Biotransformation [6] | Bacterial Biotransformation [7] | Bacterial Biotransformation [8] | Bacterial Biotransformation [9] | Bacterial Biotransformation [10] | Bacterial Biotransformation [11] | Bacterial Biotransformation [12] | Bacterial Biotransformation [13] | Bacterial Biotransformation [14] | Bacterial Biotransformation [15] | Bacterial Biotransformation [16] | Bacterial Biotransformation [17] | Bacterial Biotransformation [18] | Bacterial Biotransformation [19] | Bacterial Biotransformation [20]
CN1CCC(OC(c2ccccc2)c2ccccc2)CC1 | Compound NOT metabolized | Compound NOT metabolized | Compound NOT metabolized | Compound NOT metabolized | Compound NOT metabolized | Compound NOT metabolized | Compound NOT metabolized | Compound NOT metabolized | Compound NOT metabolized | Compound NOT metabolized | Compound metabolized | Compound metabolized | Compound NOT metabolized | Compound NOT metabolized | Compound NOT metabolized | Compound NOT metabolized | Compound NOT metabolized | Compound NOT metabolized | Compound NOT metabolized | Compound NOT metabolized
CCS(=O)(=O)CCn1c([N+](=O)[O-])cnc1C [TINIDAZOLE] | Compound metabolized | Compound metabolized | Compound metabolized | Compound metabolized | Compound metabolized | Compound metabolized | Compound metabolized | Compound metabolized | Compound metabolized | Compound metabolized | Compound metabolized | Compound metabolized | Compound metabolized | Compound metabolized | Compound metabolized | Compound metabolized | Compound metabolized | Compound metabolized | Compound metabolized | Compound metabolized
C=CC[C@@H]1/C=C(\C)C[C@H](C)C[C@H](OC)[C@H]2O[C@@](O)(C(=O)C(=O)N3CCCC[C@H]3C(=O)O[C@H](/C(C)=C/[C@@H]3CC[C@@H](O)[C@H](OC)C3)[C@H](C)[C@@H](O)CC1=O)[C@H](C)C[C@@H]2OC.O [TACROLIMUS] | Compound metabolized | Compound metabolized | Compound NOT metabolized | Compound NOT metabolized | Compound NOT metabolized | Compound metabolized | Compound metabolized | Compound metabolized | Compound NOT metabolized | Compound NOT metabolized | Compound NOT metabolized | Compound metabolized | Compound metabolized | Compound NOT metabolized | Compound metabolized | Compound NOT metabolized | Compound metabolized | Compound NOT metabolized | Compound NOT metabolized | Compound metabolized
CN(CCOc1ccc(CC2SC(=O)NC2=O)cc1)c1ccccn1.O=C(O)/C=C\C(=O)O (stereo not given) [ROSIGLITAZONE MALEATE] | Compound NOT metabolized | Compound metabolized | Compound metabolized | Compound NOT metabolized | Compound NOT metabolized | Compound NOT metabolized | Compound metabolized | Compound NOT metabolized | Compound NOT metabolized | Compound metabolized | Compound NOT metabolized | Compound NOT metabolized | Compound NOT metabolized | Compound metabolized | Compound metabolized | Compound NOT metabolized | Compound NOT metabolized | Compound NOT metabolized | Compound NOT metabolized | Compound NOT metabolized
N=C(N)NC(=O)Cc1c(Cl)cccc1Cl [GUANFACINE] | Compound NOT metabolized | Compound NOT metabolized | Compound NOT metabolized | Compound NOT metabolized | Compound NOT metabolized | Compound NOT metabolized | Compound NOT metabolized | Compound NOT metabolized | Compound NOT metabolized | Compound NOT metabolized | Compound NOT metabolized | Compound NOT metabolized | Compound NOT metabolized | Compound NOT metabolized | Compound NOT metabolized | Compound NOT metabolized | Compound NOT metabolized | Compound NOT metabolized | Compound NOT metabolized | Compound NOT metabolized
CCN1CCCC1CNC(=O)c1cc(S(=O)(=O)CC)c(N)cc1OC (stereo not given) [AMISULPRIDE] | Compound NOT metabolized | Compound NOT metabolized | Compound NOT metabolized | Compound NOT metabolized | Compound NOT metabolized | Compound NOT metabolized | Compound metabolized | Compound NOT metabolized | Compound NOT metabolized | Compound NOT metabolized | Compound NOT metabolized | Compound NOT metabolized | Compound metabolized | Compound metabolized | Compound metabolized | Compound NOT metabolized | Compound NOT metabolized | Compound NOT metabolized | Compound NOT metabolized | Compound NOT metabolized
COc1ccc(CN2CCNCC2)c(OC)c1OC.Cl.Cl [TRIMETAZIDINE DIHYDROCHLORIDE] | Compound NOT metabolized | Compound NOT metabolized | Compound NOT metabolized | Compound NOT metabolized | Compound NOT metabolized | Compound NOT metabolized | Compound NOT metabolized | Compound NOT metabolized | Compound NOT metabolized | Compound NOT metabolized | Compound NOT metabolized | Compound NOT metabolized | Compound NOT metabolized | Compound NOT metabolized | Compound NOT metabolized | Compound NOT metabolized | Compound NOT metabolized | Compound NOT metabolized | Compound NOT metabolized | Compound NOT metabolized
Nc1nc(N)nc(-c2cc(Cl)ccc2Cl)n1.O=C(O)/C=C\C(=O)O [IRSOGLADINE MALEATE] | Compound NOT metabolized | Compound NOT metabolized | Compound NOT metabolized | Compound NOT metabolized | Compound NOT metabolized | Compound NOT metabolized | Compound NOT metabolized | Compound NOT metabolized | Compound NOT metabolized | Compound NOT metabolized | Compound NOT metabolized | Compound NOT metabolized | Compound NOT metabolized | Compound NOT metabolized | Compound metabolized | Compound NOT metabolized | Compound NOT metabolized | Compound NOT metabolized | Compound NOT metabolized | Compound NOT metabolized
